Source: PubChem BioAssay AID1745844 (Carcinogenic Potency Database (CPDB), 2022)

Test system: rodent lifetime carcinogenesis bioassay, tumor incidence TD50
Experiment: chronic cancer bioassays in animals – CPDB, compiled studies (AID 1745844)
Conditions: rat, strain Fischer 344, in drinking water, study length 97 weeks

With `COc1cc(-c2ccc(N=Nc3c(S(=O)(=O)O)cc4cc(S(=O)(=O)O)cc(N)c4c3O)c(OC)c2)ccc1N=Nc1c(S(=O)(=O)O)cc2cc(S(=O)(=O)O)cc(N)c2c1O` the TD50 (females, site: Zymbal's gland, lesion: adenoma + carcinoma, dosed 96 weeks) was 104 mg/kg/day, the TD50 (females, site: Zymbal's gland, lesion: adenoma, dosed 96 weeks) was 321 mg/kg/day and the TD50 (females, site: Zymbal's gland, lesion: carcinoma, dosed 96 weeks) was 150 mg/kg/day. The TD50 (females, site: any site (literature study), lesion: several types, types named in the paper, dosed 96 weeks) was 20.4 mg/kg/day, the TD50 (females, site: clitoral gland, lesion: adenoma + adenoma, bilateral + carcinoma + carcinoma, bilateral, dosed 96 weeks) was 46.2 mg/kg/day and the TD50 (females, site: clitoral gland, lesion: adenoma + adenoma, bilateral, dosed 96 weeks) was 90.1 mg/kg/day. For the same compound, the TD50 (females, site: clitoral gland, lesion: carcinoma + carcinoma, bilateral, dosed 96 weeks) was 107 mg/kg/day, the TD50 (females, site: colon, ascending + clitoral gland + colon + colon, descending + duodenum + jejunum + liver + multiple organs + palate + skin + tongue + uterus, lesion: adenomatous polyp + adenoma + adenoma, bilateral + carcinoma + carcinoma, bilateral + mucinous cystadenocarcinoma + adenocarcinoma + h, dosed 96 weeks) was 21.3 mg/kg/day and the TD50 (females, site: colon, ascending + colon + colon, descending, lesion: adenomatous polyp, dosed 96 weeks) was 491 mg/kg/day. The TD50 (females, site: duodenum + jejunum, lesion: mucinous cystadenocarcinoma + adenocarcinoma, dosed 96 weeks) was 997 mg/kg/day, the TD50 (females, site: jejunum, lesion: adenocarcinoma + mucinous cystadenocarcinoma, dosed 96 weeks) was 1180 mg/kg/day and the TD50 (females, site: liver, lesion: hepatocellular adenoma + hepatocellular carcinoma + neoplastic nodule, dosed 96 weeks) was 394 mg/kg/day. For the same compound, the TD50 (females, site: liver, lesion: hepatocellular carcinoma + neoplastic nodule, dosed 96 weeks) was 394 mg/kg/day, the TD50 (females, site: liver, lesion: neoplastic nodule, dosed 96 weeks) was 429 mg/kg/day and the TD50 (females, site: multiple organs, lesion: mononuclear-cell leukemia, dosed 96 weeks) was 50 mg/kg/day. The TD50 (females, site: palate + tongue, lesion: squamous-cell carcinoma + squamous-cell papilloma, dosed 96 weeks) was 81 mg/kg/day, the TD50 (females, site: palate + tongue, lesion: squamous-cell carcinoma, dosed 96 weeks) was 208 mg/kg/day and the TD50 (females, site: palate + tongue, lesion: squamous-cell papilloma, dosed 96 weeks) was 132 mg/kg/day. The TD50 (females, site: palate, lesion: squamous-cell carcinoma, dosed 96 weeks) was 456 mg/kg/day, the TD50 (females, site: palate, lesion: squamous-cell papilloma, dosed 96 weeks) was 157 mg/kg/day and the TD50 (females, site: skin, lesion: squamous-cell carcinoma + squamous-cell papilloma, dosed 96 weeks) was 158 mg/kg/day. It also gave a TD50 (females, site: skin, lesion: squamous-cell papilloma, dosed 96 weeks) of 174 mg/kg/day, a TD50 (females, site: tongue, lesion: squamous-cell carcinoma + squamous-cell papilloma, dosed 96 weeks) of 238 mg/kg/day and a TD50 (females, site: tongue, lesion: squamous-cell carcinoma, dosed 96 weeks) of 384 mg/kg/day. It also gave a TD50 (females, site: uterus, lesion: adenocarcinoma + adenoma, dosed 96 weeks) of 493 mg/kg/day, a TD50 (females, site: uterus, lesion: endometrial stromal polyp + endometrial stromal sarcoma, dosed 96 weeks) of 122 mg/kg/day and a TD50 (females, site: uterus, lesion: endometrial stromal polyp, dosed 96 weeks) of 132 mg/kg/day. The TD50 (males, site: Zymbal's gland, lesion: adenoma + carcinoma, dosed 97 weeks) was 89.2 mg/kg/day, the TD50 (males, site: Zymbal's gland, lesion: adenoma, dosed 97 weeks) was 237 mg/kg/day and the TD50 (males, site: Zymbal's gland, lesion: carcinoma, dosed 97 weeks) was 132 mg/kg/day. The TD50 (males, site: adrenal medulla, lesion: pheochromocytoma benign, bilateral + pheochromocytoma, benign, dosed 97 weeks) was 39.8 mg/kg/day, the TD50 (males, site: adrenal medulla, lesion: pheochromocytoma benign, bilateral + pheochromocytoma, complex + pheochromocytoma, malignant + pheochromocytoma, benign, dosed 97 weeks) was 36.6 mg/kg/day and the TD50 (males, site: any site (literature study), lesion: several types, types named in the paper, dosed 97 weeks) was 12 mg/kg/day. It also gave a TD50 (males, site: brain, medulla + cerebrum, lesion: astrocytoma, malignant, dosed 97 weeks) of 600 mg/kg/day, a TD50 (males, site: colon, ascending + colon + colon, descending + jejunum + liver + palate + pharynx + preputial gland + skin + tongue + Zymbal's gland, lesion: adenomatous polyp + adenocarcinoma + mucinous cystadenocarcinoma + hepatocellular carcinoma + neoplastic nodule + squamous-cell pa, dosed 97 weeks) of 11.8 mg/kg/day and a TD50 (males, site: colon, ascending + colon + colon, descending, lesion: adenomatous polyp + adenocarcinoma, dosed 97 weeks) of 162 mg/kg/day. It also gave a TD50 (males, site: colon, ascending + colon + colon, descending, lesion: adenomatous polyp, dosed 97 weeks) of 310 mg/kg/day, a TD50 (males, site: colon, lesion: adenocarcinoma, dosed 97 weeks) of 355 mg/kg/day and a TD50 (males, site: jejunum, lesion: adenocarcinoma + adenomatous polyp + mucinous cystadenocarcinoma, dosed 97 weeks) of 1630 mg/kg/day. It also gave a TD50 (males, site: liver, lesion: hepatocellular adenoma + hepatocellular carcinoma + neoplastic nodule, dosed 97 weeks) of 55.2 mg/kg/day, a TD50 (males, site: liver, lesion: hepatocellular carcinoma + neoplastic nodule, dosed 97 weeks) of 55.2 mg/kg/day and a TD50 (males, site: liver, lesion: hepatocellular carcinoma, dosed 97 weeks) of 375 mg/kg/day. The TD50 (males, site: liver, lesion: neoplastic nodule, dosed 97 weeks) was 65.3 mg/kg/day, the TD50 (males, site: multiple organs, lesion: mononuclear-cell leukemia, dosed 97 weeks) was 23 mg/kg/day and the TD50 (males, site: palate + pharynx + tongue, lesion: squamous-cell papilloma + squamous-cell carcinoma, dosed 97 weeks) was 39.3 mg/kg/day. For the same compound, the TD50 (males, site: palate + tongue, lesion: squamous-cell papilloma, dosed 97 weeks) was 43.6 mg/kg/day, the TD50 (males, site: palate, lesion: squamous-cell papilloma, dosed 97 weeks) was 47 mg/kg/day and the TD50 (males, site: pharynx + tongue, lesion: squamous-cell carcinoma, dosed 97 weeks) was 361 mg/kg/day. It also gave a TD50 (males, site: pharynx, lesion: squamous-cell carcinoma, dosed 97 weeks) of 466 mg/kg/day, a TD50 (males, site: preputial gland, lesion: adenoma + adenoma, bilateral + carcinoma + carcinoma, bilateral, dosed 97 weeks) of 55.3 mg/kg/day and a TD50 (males, site: preputial gland, lesion: adenoma + adenoma, bilateral, dosed 97 weeks) of 77.1 mg/kg/day. For the same compound, the TD50 (males, site: preputial gland, lesion: carcinoma + carcinoma, bilateral, dosed 97 weeks) was 207 mg/kg/day, the TD50 (males, site: skin, lesion: basal-cell adenoma + basal-cell carcinoma + sebaceous adenoma, dosed 97 weeks) was 18.1 mg/kg/day and the TD50 (males, site: skin, lesion: basal-cell adenoma + basal-cell carcinoma, dosed 97 weeks) was 19.6 mg/kg/day. It also gave a TD50 (males, site: skin, lesion: basal-cell adenoma, dosed 97 weeks) of 21.6 mg/kg/day, a TD50 (males, site: skin, lesion: basal-cell carcinoma, dosed 97 weeks) of 101 mg/kg/day and a TD50 (males, site: skin, lesion: keratoacanthoma, dosed 97 weeks) of 152 mg/kg/day. The TD50 (males, site: skin, lesion: sebaceous adenoma, dosed 97 weeks) was 108 mg/kg/day, the TD50 (males, site: skin, lesion: squamous-cell carcinoma + squamous-cell papilloma, dosed 97 weeks) was 51 mg/kg/day and the TD50 (males, site: skin, lesion: squamous-cell carcinoma, dosed 97 weeks) was 89.7 mg/kg/day. For the same compound, the TD50 (males, site: skin, lesion: squamous-cell papilloma, dosed 97 weeks) was 92.8 mg/kg/day, the TD50 (males, site: subcutaneous tissue, lesion: fibroma + sarcoma, dosed 97 weeks) was 131 mg/kg/day and the TD50 (males, site: subcutaneous tissue, lesion: fibroma, dosed 97 weeks) was 150 mg/kg/day. For the same compound, the TD50 (males, site: testis, lesion: interstitial-cell adenoma, bilateral + interstitial-cell adenoma, dosed 97 weeks) was 12.9 mg/kg/day, the TD50 (males, site: thyroid gland, lesion: c-cell adenoma + c-cell adenoma, bilateral, dosed 97 weeks) was 143 mg/kg/day and the TD50 (males, site: thyroid gland, lesion: c-cell adenoma + c-cell carcinoma, bilateral + c-cell carcinoma + c-cell adenoma, bilateral, dosed 97 weeks) was 116 mg/kg/day. For the same compound, the TD50 (males, site: thyroid gland, lesion: follicular-cell adenoma + follicular-cell carcinoma, dosed 97 weeks) was 103 mg/kg/day, the TD50 (males, site: thyroid gland, lesion: follicular-cell adenoma, dosed 97 weeks) was 49.7 mg/kg/day and the TD50 (males, site: thyroid gland, lesion: follicular-cell carcinoma, dosed 97 weeks) was 331 mg/kg/day. For the same compound, the TD50 (males, site: tongue, lesion: squamous-cell carcinoma + squamous-cell papilloma, dosed 97 weeks) was 371 mg/kg/day.
